In ChEMBL document CHEMBL3600337, “Chemoenzymatic synthesis and cytotoxicity of oenanthotoxin and analogues” (Bioorg Med Chem, 2015):

Experiments:
A549 = assay: Cytotoxicity against human A549 cells after 96 hrs by sulforhodamine B assay; type: functional, cell-based; conditions: A549, 96 h
A2780 = assay: Cytotoxicity against human A2780 cells after 96 hrs by sulforhodamine B assay; type: functional, cell-based; conditions: A2780, 96 h
HT-29 = assay: Cytotoxicity against human HT-29 cells after 96 hrs by sulforhodamine B assay; type: functional, cell-based; conditions: HT-29, 96 h
[1] = Cytotoxicity against mouse NIH/3T3 cells after 96 hrs by sulforhodamine B assay; type: cell-based; conditions: NIH3T3, 96 h
[2] = Cytotoxicity against human 518A2 cells after 96 hrs by sulforhodamine B assay; type: functional, cell-based; conditions: 518A2, 96 h
MCF7 = assay: Cytotoxicity against human MCF7 cells after 96 hrs by sulforhodamine B assay; type: functional, cell-based; conditions: MCF7, 96 h
8505C = assay: Cytotoxicity against human 8505C cells after 96 hrs by sulforhodamine B assay; type: functional, cell-based

Compound	EC50 (A549)	EC50 (A2780)	EC50 (HT-29)	EC50 [1]	EC50 [2]	EC50 (MCF7)	EC50 (8505C)
CCCC(=O)CC/C=C/C=C/C#CC#C/C=C/CO	19.7 µM	4.9 µM	21.2 µM	11.1 µM	19.1 µM	234 µM	18 µM
CCC[C@@H](O)CC/C=C/C=C/C#CC#C/C=C/COC(C)=O	20.5 µM	6.8 µM	26.3 µM	16.9 µM	14.9 µM	21.3 µM	20.3 µM
CCC[C@@H](CC/C=C/C=C/C#CC#C/C=C/COC(C)=O)OC(C)=O	14.5 µM	3.9 µM	17.9 µM	11.8 µM	14.7 µM	12.4 µM	16.8 µM
CCCC(=O)CC/C=C/C=C/C#CC#C/C=C/COC(C)=O	56.4 µM	4.7 µM	> 30 µM	14.2 µM	9.1 µM	21.6 µM	15.6 µM
CCCC(=O)CC/C=C/C=C/C#CC#C/C=C/COC(=O)c1ccccc1	14.4 µM	> 30 µM	7.9 µM	26.7 µM	20.5 µM	> 30 µM	4.2 µM
CCCC(=O)CC/C=C/C=C/C#CC#C/C=C/COC(=O)CCl	5.1 µM	3.6 µM	> 30 µM	11.9 µM	12.6 µM	26.9 µM	19.3 µM
CCCC(=O)CC/C=C/C=C/C#CC#C/C=C/C=O	> 30 µM	7 µM	22.2 µM	13.2 µM	> 30 µM	5.9 µM	7.1 µM
CCCC(=O)CC/C=C/C=C/C#CC#C/C=C/C(=O)O	> 30 µM	> 30 µM	> 30 µM	> 30 µM	> 30 µM	> 30 µM	19.3 µM
C=C(C)[C@@H]1CC[C@]2(C(=O)O)CC[C@]3(C)[C@H](CC[C@@H]4[C@@]5(C)CC[C@H](O)C(C)(C)[C@@H]5CC[C@]43C)[C@@H]12 [BETULINIC ACID]	14.8 µM	11 µM	13.1 µM	10 µM	11.9 µM	14.9 µM	6.7 µM
CCC[C@@H](O)CC/C=C/C=C/C#CC#C/C=C/CO [OENANTHOTOXIN]	10.9 µM	3.8 µM	> 30 µM	10.1 µM	17.1 µM	20.6 µM	10.5 µM
